From patent publication US8703768B2, “Nitrogen containing heteroaryl compounds” (Hoffmann-La Roche Inc., priority 2010, dated 2014)

The compounds below were run against human PDE10A (Homo sapiens (Human), UniProt Q9Y233) (assay: human PDE10A full length Scintillation Proximity Assay (SPA)). Settings: 50 nM cGMP and 50 nM [3H]-cGMP, 20 minutes at room temperature; read-out: PDE10A inhibition IC50.
Format: biochemical
In short: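 Full-length enzyme incubated with compounds; reaction started with cGMP plus [^3H]-cGMP substrate and run 20 min at room temperature. Stopped with yttrium silicate SPA beads in 18 mM zinc sulphate, 1 h shaking, then scintillation counting; background from enzyme-free wells.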

human PDE10A, sequence (Q9Y233 other isoform, or with tags, fused parts or gaps): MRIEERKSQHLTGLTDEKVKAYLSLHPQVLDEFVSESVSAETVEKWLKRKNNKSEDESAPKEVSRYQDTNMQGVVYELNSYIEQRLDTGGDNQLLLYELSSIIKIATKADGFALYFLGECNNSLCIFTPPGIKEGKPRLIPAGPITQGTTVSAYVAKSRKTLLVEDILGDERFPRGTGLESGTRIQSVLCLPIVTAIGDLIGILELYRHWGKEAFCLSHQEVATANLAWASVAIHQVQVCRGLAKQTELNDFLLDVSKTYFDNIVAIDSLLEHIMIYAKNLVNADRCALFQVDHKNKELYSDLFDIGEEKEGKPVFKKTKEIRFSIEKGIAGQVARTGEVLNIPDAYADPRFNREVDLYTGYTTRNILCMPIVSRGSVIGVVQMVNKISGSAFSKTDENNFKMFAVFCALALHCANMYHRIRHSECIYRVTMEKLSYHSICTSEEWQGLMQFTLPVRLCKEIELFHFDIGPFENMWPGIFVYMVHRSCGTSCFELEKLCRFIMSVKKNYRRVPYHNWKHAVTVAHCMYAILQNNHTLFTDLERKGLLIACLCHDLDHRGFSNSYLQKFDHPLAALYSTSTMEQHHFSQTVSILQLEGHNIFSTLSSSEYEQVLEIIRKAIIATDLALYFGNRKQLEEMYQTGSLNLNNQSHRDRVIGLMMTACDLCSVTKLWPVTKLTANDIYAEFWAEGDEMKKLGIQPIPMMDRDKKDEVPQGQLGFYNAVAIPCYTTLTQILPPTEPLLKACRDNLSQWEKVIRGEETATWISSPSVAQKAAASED

| Structure (SMILES) | IC50 [nM] |
| --- | --- |
| Cn1cc(NC(=O)c2nc(C3CC3)cnc2Nc2cncnc2)c(C(=O)NCC(C)(C)O)n1 [Example 95, 6-Cyclopropyl-3-(pyrimidin-5-ylamino)-pyrazine-2-carboxylic acid [3-(2-hydroxy-2-methyl-propylcarbamoyl)-1-methyl-1H-pyrazol-4-yl]-amide] | 1.8 |
| CNC(=O)c1ncncc1NC(=O)c1nc(C2CC2)cnc1Nc1cncnc1 [Example 218, 5-{[6-Cyclopropyl-3-(pyrimidin-5-ylamino)-pyrazine-2-carbonyl]-amino}-pyrimidine-4-carboxylic acid methylamide] | 5.2 |
| Cn1cc(NC(=O)c2nc(C3CC3)ccc2Nc2cncnc2)c(C(=O)N2CCC(O)C2)n1 (centres unmarked) [Example 44, 6-Cyclopropyl-3-(pyrimidin-5-ylamino)-pyridine-2-carboxylic acid [3-(3-hydroxy-pyrrolidine-1-carbonyl)-1-methyl-1H-pyrazol-4-yl]-amide] | 27.4 |
| CNC(=O)c1c(C)cccc1NC(=O)c1nc(C2CC2)cnc1Nc1cncnc1 [Example 224, 6-Cyclopropyl-3-(pyrimidin-5-ylamino)-pyrazine-2-carboxylic acid (3-methyl-2-methylcarbamoyl-phenyl)-amide] | 18.1 |
| CC(C)(O)CNC(=O)c1c(NC(=O)c2nc(C3CC3)cnc2Nc2cncnc2)cnn1CC(F)(F)F [Example 175, 6-Cyclopropyl-3-(pyrimidin-5-ylamino)-pyrazine-2-carboxylic acid [5-(2-hydroxy-2-methyl-propylcarbamoyl)-1-(2,2,2-trifluoro-ethyl)-1H-pyrazol-4-yl]-amide] | 25 |
| CNC(=O)c1c(NC(=O)c2nc(C(C)C)ncc2Nc2cccnc2)cnn1C [Example 186, 2-Isopropyl-5-(pyridin-3-ylamino)-pyrimidine-4-carboxylic acid (1-methyl-5-methylcarbamoyl-1H-pyrazol-4-yl)-amide] | 8.2 |
| O=C(Nc1cnccc1C(=O)N1CC(O)C1)c1nc(C2CC2)ccc1Nc1cncnc1 [Example 82, 6-Cyclopropyl-3-(pyrimidin-5-ylamino)-pyridine-2-carboxylic acid [4-(3-hydroxy-azetidine-1-carbonyl)-pyridin-3-yl]-amide] | 58.5 |
| CNC(=O)c1nn(C)cc1NC(=O)c1nc(C2CC2)ncc1Nc1cncnc1 [Example 76, 2-Cyclopropyl-5-(pyrimidin-5-ylamino)-pyrimidine-4-carboxylic acid (1-methyl-3-methylcarbamoyl-1H-pyrazol-4-yl)-amide] | 7.9 |
| COC(C)(C)CNC(=O)c1c(NC(=O)c2nc(C3CC3)cnc2Nc2cncnc2)cnn1C [Example 151, 6-Cyclopropyl-3-(pyrimidin-5-ylamino)-pyrazine-2-carboxylic acid [5-(2-methoxy-2-methyl-propylcarbamoyl)-1-methyl-1H-pyrazol-4-yl]-amide] | 2.7 |
| CNC(=O)c1cc(F)c(F)cc1NC(=O)c1nc(C2CC2)cnc1Nc1cncnc1 [Example 288, 6-Cyclopropyl-3-(pyrimidin-5-ylamino)-pyrazine-2-carboxylic acid (4,5-difluoro-2-methylcarbamoyl-phenyl)-amide] | 0.8 |
| Cn1ncc(NC(=O)c2nc(C3CC3)cnc2Nc2cncnc2)c1C(=O)NC1CCNC1 (centres unmarked) [Example 251, 6-Cyclopropyl-3-(pyrimidin-5-ylamino)-pyrazine-2-carboxylic acid [1-methyl-5-(pyrrolidin-3-ylcarbamoyl)-1H-pyrazol-4-yl]-amide] | 137 |
| CC1CCCN1C(=O)c1ccncc1NC(=O)c1nc(C2CC2)ccc1Nc1cncnc1 (centres unmarked) [Example 55, 6-Cyclopropyl-3-(pyrimidin-5-ylamino)-pyridine-2-carboxylic acid [4-(2-methyl-pyrrolidine-1-carbonyl)-pyridin-3-yl]-amide] | 115 |
| CC1COCCN1C(=O)c1ncccc1NC(=O)c1nc(C2CC2)cnc1Nc1cncnc1 (centres unmarked) [Example 254, 6-Cyclopropyl-3-(pyrimidin-5-ylamino)-pyrazine-2-carboxylic acid [2-(3-methyl-morpholine-4-carbonyl)-pyridin-3-yl]-amide] | 31.7 |
| CN(C)C(=O)c1ccc(F)c(F)c1NC(=O)c1nc(C2CC2)cnc1Nc1cncnc1 [Example 325, 6-Cyclopropyl-3-(pyrimidin-5-ylamino)-pyrazine-2-carboxylic acid (6-dimethylcarbamoyl-2,3-difluoro-phenyl)-amide] | 335 |
| CN(CC(C)(C)O)C(=O)c1c(NC(=O)c2nc(C3CC3)cnc2Nc2cncnc2)cnn1C [Example 153, 6-Cyclopropyl-3-(pyrimidin-5-ylamino)-pyrazine-2-carboxylic acid {5-[(2-hydroxy-2-methyl-propyl)-methyl-carbamoyl]-1-methyl-1H-pyrazol-4-yl}-amide] | 16.1 |
| COC1CCN(C(=O)c2ccncc2NC(=O)c2nc(C3CC3)ccc2Nc2cncnc2)C1 (centres unmarked) [Example 62, 6-Cyclopropyl-3-(pyrimidin-5-ylamino)-pyridine-2-carboxylic acid [4-(3-methoxy-pyrrolidine-1-carbonyl)-pyridin-3-yl]-amide] | 93.9 |

| Structure (SMILES) | IC50 [nM] |
| --- | --- |
| CNC(=O)c1c(Cl)cccc1NC(=O)c1nc(C2CC2)cnc1Nc1cncnc1 [Example 196, 6-Cyclopropyl-3-(pyrimidin-5-ylamino)-pyrazine-2-carboxylic acid (3-chloro-2-methylcarbamoyl-phenyl)-amide] | 22 |
| CNC(=O)c1ncccc1NC(=O)c1nc(C2CC2)cnc1Nc1cncnc1 [Example 128, 6-Cyclopropyl-3-(pyrimidin-5-ylamino)-pyrazine-2-carboxylic acid (2-methylcarbamoyl-pyridin-3-yl)-amide] | 1.3 |
| CN(C)C(=O)c1ccncc1NC(=O)c1nc(C2CC2)ccc1Nc1cncnc1 [Example 23, 6-Cyclopropyl-3-(pyrimidin-5-ylamino)-pyridine-2-carboxylic acid (4-dimethylcarbamoyl-pyridin-3-yl)-amide] | 87.8 |
| O=C(Nc1sccc1C(=O)N1CCOCC1)c1nc(C2CC2)ccc1Nc1cncnc1 [Example 90, 6-Cyclopropyl-3-(pyrimidin-5-ylamino)-pyridine-2-carboxylic acid [3-(morpholine-4-carbonyl)-thiophen-2-yl]-amide] | 0.4 |
| CCNC(=O)c1c(NC(=O)c2nc(C3CC3)cnc2Nc2cncnc2)cnn1C [Example 197, 6-Cyclopropyl-3-(pyrimidin-5-ylamino)-pyrazine-2-carboxylic acid (5-ethylcarbamoyl-1-methyl-1H-pyrazol-4-yl)-amide] | 3.9 |
| O=C(NC1CC1)c1nocc1NC(=O)c1nc(C2CC2)cnc1Nc1cncnc1 [Example 163, 6-Cyclopropyl-3-(pyrimidin-5-ylamino)-pyrazine-2-carboxylic acid (3-cyclopropylcarbamoyl-isoxazol-4-yl)-amide] | 6.2 |
| O=C(Nc1cnccc1C(=O)N1CCC(F)(F)C1)c1nc(C2CC2)ccc1Nc1cncnc1 [Example 56, 6-Cyclopropyl-3-(pyrimidin-5-ylamino)-pyridine-2-carboxylic acid [4-(3,3-difluoro-pyrrolidine-1-carbonyl)-pyridin-3-yl]-amide] | 65.7 |
| O=C1CN(C(=O)c2ccncc2NC(=O)c2nc(C3CC3)ccc2Nc2cncnc2)CCN1 [Example 60, 6-Cyclopropyl-3-(pyrimidin-5-ylamino)-pyridine-2-carboxylic acid [4-(3-oxo-piperazine-1-carbonyl)-pyridin-3-yl]-amide] | 232 |
| CC(C)(O)CNC(=O)c1ncccc1NC(=O)c1nc(C(C)(C)C)ncc1Nc1cncnc1 [Example 330, 2-tert-Butyl-5-(pyrimidin-5-ylamino)-pyrimidine-4-carboxylic acid [2-(2-hydroxy-2-methyl-propylcarbamoyl)-pyridin-3-yl]-amide] | 1.1 |
| Cc1ccc(NC(=O)c2nc(C3CC3)cnc2Nc2cncnc2)c(C(=O)N(C)C)n1 [Example 268, 6-Cyclopropyl-3-(pyrimidin-5-ylamino)-pyrazine-2-carboxylic acid (2-dimethylcarbamoyl-6-methyl-pyridin-3-yl)-amide] | 14.9 |
| Cn1cc(NC(=O)c2nc(C3CC3)ccc2Nc2cncnc2)c(C(=O)N2CCNC(=O)C2)n1 [Example 47, 6-Cyclopropyl-3-(pyrimidin-5-ylamino)-pyridine-2-carboxylic acid [1-methyl-3-(3-oxo-piperazine-1-carbonyl)-1H-pyrazol-4-yl]-amide] | 13.2 |
| Cn1cc(NC(=O)c2nc(C3CC3)ccc2Nc2cncnc2)c(C(=O)NCC(O)CO)n1 (centres unmarked) [Example 42, 6-Cyclopropyl-3-(pyrimidin-5-ylamino)-pyridine-2-carboxylic acid [3-(2,3-dihydroxy-propylcarbamoyl)-1-methyl-1H-pyrazol-4-yl]-amide] | 8.1 |
| CCNC(=O)c1c(NC(=O)c2nc(C3CC3)cnc2Nc2cncnc2)sc2c1CCCC2 [Example 185, 6-Cyclopropyl-3-(pyrimidin-5-ylamino)-pyrazine-2-carboxylic acid (3-ethylcarbamoyl-4,5,6,7-tetrahydro-benzo[b]thiophen-2-yl)-amide] | 2690 |
| CNC(=O)c1nc(C2CC2)ccc1NC(=O)c1nc(C2CC2)cnc1Nc1cncnc1 [Example 158, 6-Cyclopropyl-3-(pyrimidin-5-ylamino)-pyrazine-2-carboxylic acid (6-cyclopropyl-2-methylcarbamoyl-pyridin-3-yl)-amide] | 0.8 |
| CC(C)(O)CNC(=O)c1c(F)cc(F)cc1NC(=O)c1nc(C2CC2)cnc1Nc1cncnc1 [Example 324, 6-Cyclopropyl-3-(pyrimidin-5-ylamino)-pyrazine-2-carboxylic acid [3,5-difluoro-2-(2-hydroxy-2-methyl-propylcarbamoyl)-phenyl]-amide] | 1.1 |
| CNC(=O)c1c(NC(=O)c2nc(N3CCC3)cnc2Nc2cncnc2)cnn1C [Example 304, 6-Azetidin-1-yl-3-(pyrimidin-5-ylamino)-pyrazine-2-carboxylic acid (1-methyl-5-methylcarbamoyl-1H-pyrazol-4-yl)-amide] | 143 |
